pIC50: −log10 of the molar value.
What follows are compounds tested against T1, telomerase in nuclear extracts from HeLa cells (Homo sapiens, UniProt O14746) (assay: Telomerase test: activity of telomerase in nuclear extracts from HeLa cells (method of Morin)). Settings: concentration of inhibitor which inhibits the telomerase activity by 50%; HeLa nuclear extract, 120 minutes at 30° C., Phospho-Imager quantification.
T1 construct: The activity of telomerase in nuclear extracts from HeLa cells; endogenous in cells; host or cells: HeLa-S3 nuclear extract (ATCC CCL-2.2), prepared according to Dignam
T1 sequence (O14746 whole entry): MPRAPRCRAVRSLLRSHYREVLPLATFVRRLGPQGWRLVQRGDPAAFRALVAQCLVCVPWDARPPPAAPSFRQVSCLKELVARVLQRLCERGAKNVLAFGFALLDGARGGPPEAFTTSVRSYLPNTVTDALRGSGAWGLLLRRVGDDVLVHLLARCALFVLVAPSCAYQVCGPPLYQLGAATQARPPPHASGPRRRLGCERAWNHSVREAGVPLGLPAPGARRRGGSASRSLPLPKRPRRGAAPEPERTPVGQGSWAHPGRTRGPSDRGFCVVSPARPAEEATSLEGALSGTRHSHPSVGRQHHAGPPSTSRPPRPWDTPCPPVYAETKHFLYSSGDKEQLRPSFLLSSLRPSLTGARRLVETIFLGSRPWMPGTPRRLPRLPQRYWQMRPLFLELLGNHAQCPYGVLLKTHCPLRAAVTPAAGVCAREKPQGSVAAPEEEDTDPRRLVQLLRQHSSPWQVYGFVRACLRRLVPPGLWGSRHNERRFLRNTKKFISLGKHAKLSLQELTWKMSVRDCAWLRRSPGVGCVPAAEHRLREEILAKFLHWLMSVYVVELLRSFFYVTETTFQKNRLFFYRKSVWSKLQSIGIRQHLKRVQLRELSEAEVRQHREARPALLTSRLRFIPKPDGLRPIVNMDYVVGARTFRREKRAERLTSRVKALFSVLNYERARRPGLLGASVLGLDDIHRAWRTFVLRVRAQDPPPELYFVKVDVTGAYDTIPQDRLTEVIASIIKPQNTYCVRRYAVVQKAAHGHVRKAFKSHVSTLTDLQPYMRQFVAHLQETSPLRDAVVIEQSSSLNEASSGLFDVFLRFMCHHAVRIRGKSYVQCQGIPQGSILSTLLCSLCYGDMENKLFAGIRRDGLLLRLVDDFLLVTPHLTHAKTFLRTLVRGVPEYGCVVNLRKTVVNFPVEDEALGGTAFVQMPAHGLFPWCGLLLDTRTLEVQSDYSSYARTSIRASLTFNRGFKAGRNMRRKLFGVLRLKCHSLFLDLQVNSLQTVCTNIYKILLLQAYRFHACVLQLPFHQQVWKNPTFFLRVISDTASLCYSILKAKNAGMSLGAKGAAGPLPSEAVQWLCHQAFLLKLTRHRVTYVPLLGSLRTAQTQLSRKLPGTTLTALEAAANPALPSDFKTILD
T1 sequence (O60832 whole entry partner): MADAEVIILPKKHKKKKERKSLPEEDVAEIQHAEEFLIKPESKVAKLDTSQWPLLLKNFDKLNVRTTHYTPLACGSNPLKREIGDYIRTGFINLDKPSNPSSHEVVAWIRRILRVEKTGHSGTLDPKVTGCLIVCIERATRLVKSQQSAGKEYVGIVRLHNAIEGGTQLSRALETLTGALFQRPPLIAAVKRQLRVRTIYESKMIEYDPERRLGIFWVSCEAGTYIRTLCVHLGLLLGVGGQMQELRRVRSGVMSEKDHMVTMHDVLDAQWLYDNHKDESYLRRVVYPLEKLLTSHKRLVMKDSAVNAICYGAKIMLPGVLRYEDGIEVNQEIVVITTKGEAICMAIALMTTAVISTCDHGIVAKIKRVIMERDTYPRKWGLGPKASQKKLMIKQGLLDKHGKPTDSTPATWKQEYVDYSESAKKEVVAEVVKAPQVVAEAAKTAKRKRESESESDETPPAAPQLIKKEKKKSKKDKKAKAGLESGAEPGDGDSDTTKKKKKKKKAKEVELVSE
T1 sequence (Q9NPE3 whole entry partner): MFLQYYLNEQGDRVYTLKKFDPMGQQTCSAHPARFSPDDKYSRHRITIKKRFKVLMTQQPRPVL
T1 sequence (Q9NX24 whole entry partner): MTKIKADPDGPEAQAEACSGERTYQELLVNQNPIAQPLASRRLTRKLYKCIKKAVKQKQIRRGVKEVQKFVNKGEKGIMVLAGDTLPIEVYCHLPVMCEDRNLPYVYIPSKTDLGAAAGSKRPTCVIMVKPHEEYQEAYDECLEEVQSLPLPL
T1 sequence (Q9NY12 whole entry partner): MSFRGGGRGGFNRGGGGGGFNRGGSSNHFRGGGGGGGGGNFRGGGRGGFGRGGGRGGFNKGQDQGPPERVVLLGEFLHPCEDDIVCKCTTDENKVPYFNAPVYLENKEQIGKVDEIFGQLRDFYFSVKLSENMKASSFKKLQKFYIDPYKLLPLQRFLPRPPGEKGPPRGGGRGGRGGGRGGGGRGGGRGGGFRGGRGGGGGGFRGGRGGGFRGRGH
T1 sequence (Q9BUR4 whole entry partner): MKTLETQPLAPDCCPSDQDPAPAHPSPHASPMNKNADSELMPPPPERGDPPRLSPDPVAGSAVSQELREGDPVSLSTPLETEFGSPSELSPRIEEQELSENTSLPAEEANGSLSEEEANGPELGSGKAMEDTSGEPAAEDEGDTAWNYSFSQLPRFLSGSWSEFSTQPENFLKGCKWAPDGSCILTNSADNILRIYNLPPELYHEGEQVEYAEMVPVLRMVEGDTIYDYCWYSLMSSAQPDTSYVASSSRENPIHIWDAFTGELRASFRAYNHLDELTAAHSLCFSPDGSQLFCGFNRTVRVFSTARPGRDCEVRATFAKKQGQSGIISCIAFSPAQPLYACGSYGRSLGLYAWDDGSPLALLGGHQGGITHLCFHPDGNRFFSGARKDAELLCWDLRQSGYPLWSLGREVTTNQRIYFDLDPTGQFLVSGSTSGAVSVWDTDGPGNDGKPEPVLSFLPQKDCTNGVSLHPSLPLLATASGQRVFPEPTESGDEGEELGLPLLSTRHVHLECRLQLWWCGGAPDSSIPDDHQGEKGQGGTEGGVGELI
Format: biochemical
Experimental: The inhibiting effect of the carboxylic acid amides of general formula I on telomerase was investigated as follows: […]
1. Preparation of Nuclear Extracts from HeLa Cells:
Nuclear extracts were prepared according to Dignam (Dignam et al. in Nucleic Acids Res. 11, 1475-1489 (1983)). All the steps were carried out at 4° C., all the equipment and solutions were pre-cooled to 4° C. At least 1×10^9 HeLa-S3 cells growing in suspension culture (ATCC catalogue number CCL-2.2) were harvested by centrifuging for 5 minutes at 1000× g and washed once with PBS buffer ([…]; 2.7 mM KCl; 8.1 mM Na2HPO4; 1.5 mM KH2PO4). After the cell volume had been determined, the cells were suspended in 5 times the volume of hypotonic buffer (10 mM HEPES/KOH, pH 7.8; 10 mM KCl; 1.5 mM MgCl2) and then left for 10 minutes at 4° C. After centrifuging for 5 minutes at 1000× g the cell pellet was suspended in twice the volume of hypotonic buffer in the presence of 1 mM DTE and 1 mM PMSF and broken up with a Dounce homogeniser. The homogenised material was made isotonic with 0.1 volume of 10-fold saline buffer (300 mM HEPES/KOH, pH 7.8; 1.4 M KCl; 30 mM MgCl2). The cell nuclei were separated from the ingredients of the cytoplasm by centrifuging and then suspended in twice the volume of nuclear extraction buffer (20 mM HEPES/KOH, pH 7.9; 420 mM KCl; 1.5 mM MgCl2; 0.2 mM EDTA; 0.5 mM DTE; 25% glycerol). The nuclei were broken up using a Dounce homogeniser and incubated for 30 minutes at 4° C. with gentle stirring. Any insoluble ingredients were removed by centrifuging for 30 minutes at 10.000 rpm (SS-34 Rotor). Then the nuclear extract was dialysed for 4-5 hours against AM-100 buffer (20 mM tris/HCl, pH 7.9; 100 mM KCl; 0.1 mM EDTA; 0.5 mM DTE; 20% glycerol). The nuclear extracts obtained were frozen in liquid nitrogen and stored at −80° C.
The activity of telomerase in nuclear extracts from HeLa cells was determined using the method described by Morin (Morin in Cell 59, 521-529 (1989)). […] If the inhibition constant of potential telomerase inhibitors was to be determined, these were also added to the telomerase reaction in a concentration range of from 1 nM to 100 μM.
The reaction was then stopped by the addition of 50 μl of RNase stop buffer (10 mM tris/HCL, pH 8.0; 20 mM EDTA; 0.1 mg/ml of RNase A 100 U/ml of RNase T1; 1000 cpm of an α-^32P-dGTP labelled, 430 bp DNA fragment) and incubation was continued for a further 15 minutes at 37° C. Proteins present in the reaction mixture were cleaved by the addition of 50 μl of proteinase K buffer (10 mM tris/HCL, pH 8.0; 0.5% SDS; 0.3 mg/ml of proteinase K) and subsequent incubation for 15 min at 37° C. The DNA was purified by extracting twice with phenol-chloroform and precipitated by adding 2.4 M ammonium acetate; 3 μg tRNA and 750 μl ethanol. Then the precipitated DNA was washed with 500 μl of 70% ethanol, dried at ambient temperature, taken up in 4 μl of formamide probe buffer (80% (V/V) formamide; 50 mM of tris-borate, pH 8.3; 1 mM EDTA; 0.1 (w/v) of xylene cyanol; 0.1% (w/v) bromophenol blue) and separated by electrophoresis on a sequence gel (8% polyacrylamide, 7 M urea, 1× TBE buffer). The DNA synthesised by telomerase in the presence or absence of potential inhibitors was identified and quantified by Phospho-Imager Analysis (Molecular Dynamics) and in this way the concentration of inhibitor which inhibits the telomerase activity by 50% (IC50) was determined.
For C/C(=C\C(=O)Nc1ccccc1C(=O)O)c1ccc(Cl)c(Cl)c1 [Example 10, trans-3-(3,4-dichlorophenyl)-but-2-enoic acid-N-(2-carboxy-phenyl)-amide], the pIC50 was 5.30. With COc1cc(C(=O)O)c(NC(=O)/C=C(\C)c2ccc(Cl)c(Cl)c2)cc1C [Example 17, trans-3-(3,4-dichlorophenyl)-but-2-enoic acid-N-(2-carboxy-4-methoxy-5-methyl-phenyl)-amide] the pIC50 was 6.00. C/C(=C\C(=O)Nc1ccccc1C(=O)O)c1ccc2ccccc2c1 [Example 18, trans-3-(naphth-2-yl)-but-2-enoic acid-N-(2-carboxy-phenyl)-amide] was tested, and the pIC50 was 7.40. COc1cc(NC(=O)/C=C(\C)c2ccc3ccccc3c2)c(C(=O)O)cc1OC [Example 28, trans-3-(naphth-2-yl)-but-2-enoic acid-N-(2-carboxy-4,5-dimethoxy-phenyl)-amide] was tested, and the pIC50 was 7.46. C/C(=C\C(=O)Nc1cc(Cl)ccc1C(=O)O)c1ccc2ccccc2c1 [Example 29, trans-3-(naphth-2-yl)-but-2-enoic acid-N-(2-carboxy-5-chloro-phenyl)-amide] gave a pIC50 of 6.26. C/C(=C\C(=O)Nc1ccc(F)cc1C(=O)O)c1ccc2ccccc2c1 [Example 31, trans-3-(naphth-2-yl)-but-2-enoic acid-N-(2-carboxy-4-fluoro-phenyl)-amide] gave a pIC50 of 7.00.

Source: US6727250B2, “Carboxylic acid amides, pharmaceutical compositions containing these compounds, their use and preparation” (Boehringer Ingelheim Pharma KG, priority 1999, dated 2004)
